Results on seven molecules are retold here after ChEMBL document CHEMBL5291721, “A preclinical secondary pharmacology resource illuminates target-adverse drug reaction associations of marketed drugs” (Nat Commun, 2023).

Assay [1] addresses D(1A) dopamine receptor (Homo sapiens, UniProt P21728). Type of assay: functional, cell-based.
The target of assay [2] is T1, Progesterone receptor (Homo sapiens, UniProt P06401).
T1 sequence (P06401 whole entry): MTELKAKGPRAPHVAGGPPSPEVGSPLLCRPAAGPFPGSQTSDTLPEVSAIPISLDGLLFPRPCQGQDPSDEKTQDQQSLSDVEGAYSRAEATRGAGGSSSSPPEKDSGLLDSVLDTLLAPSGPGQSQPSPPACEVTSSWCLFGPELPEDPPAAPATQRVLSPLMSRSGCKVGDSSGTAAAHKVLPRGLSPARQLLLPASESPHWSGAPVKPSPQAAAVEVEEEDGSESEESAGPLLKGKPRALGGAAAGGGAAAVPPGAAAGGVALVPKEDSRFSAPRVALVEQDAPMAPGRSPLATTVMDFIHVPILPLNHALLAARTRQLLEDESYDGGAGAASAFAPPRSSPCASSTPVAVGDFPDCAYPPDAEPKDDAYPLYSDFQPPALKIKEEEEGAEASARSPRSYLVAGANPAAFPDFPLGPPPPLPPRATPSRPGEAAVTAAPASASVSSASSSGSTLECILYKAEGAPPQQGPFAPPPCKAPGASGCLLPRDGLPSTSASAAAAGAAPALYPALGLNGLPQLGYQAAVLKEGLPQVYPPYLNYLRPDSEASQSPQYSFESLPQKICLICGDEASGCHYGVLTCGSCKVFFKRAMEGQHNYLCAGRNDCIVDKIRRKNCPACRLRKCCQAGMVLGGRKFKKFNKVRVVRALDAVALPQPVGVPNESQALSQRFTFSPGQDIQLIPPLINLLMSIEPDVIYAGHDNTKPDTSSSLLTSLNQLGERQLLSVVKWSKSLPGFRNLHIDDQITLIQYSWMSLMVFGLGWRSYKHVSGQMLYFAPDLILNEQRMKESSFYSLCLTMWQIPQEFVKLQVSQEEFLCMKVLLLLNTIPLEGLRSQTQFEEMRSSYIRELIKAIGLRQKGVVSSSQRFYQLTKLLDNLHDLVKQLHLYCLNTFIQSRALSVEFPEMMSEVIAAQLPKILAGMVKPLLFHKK
Type of assay: functional.

The target in assay [3] is Gamma-aminobutyric acid receptor subunit alpha-1 (Rattus norvegicus, UniProt P62813).
Sequence of Gamma-aminobutyric acid receptor subunit alpha-1 (P62813 whole entry): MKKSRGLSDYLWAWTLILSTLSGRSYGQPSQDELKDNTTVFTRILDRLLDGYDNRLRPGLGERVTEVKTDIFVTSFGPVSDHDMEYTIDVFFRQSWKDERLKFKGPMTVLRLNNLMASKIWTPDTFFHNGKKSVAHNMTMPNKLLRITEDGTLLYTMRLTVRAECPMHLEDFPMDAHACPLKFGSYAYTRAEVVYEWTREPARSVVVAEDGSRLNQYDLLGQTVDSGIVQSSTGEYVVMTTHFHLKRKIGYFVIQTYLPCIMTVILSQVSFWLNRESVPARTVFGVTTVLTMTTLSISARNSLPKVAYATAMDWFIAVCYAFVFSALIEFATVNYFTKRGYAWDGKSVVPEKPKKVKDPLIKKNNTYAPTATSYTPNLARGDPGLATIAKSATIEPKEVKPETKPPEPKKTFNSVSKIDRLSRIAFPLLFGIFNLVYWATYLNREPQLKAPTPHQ
Assay [4] deals with T2, Thromboxane A2 receptor (Homo sapiens, UniProt P21731).
T2 sequence (P21731 whole entry): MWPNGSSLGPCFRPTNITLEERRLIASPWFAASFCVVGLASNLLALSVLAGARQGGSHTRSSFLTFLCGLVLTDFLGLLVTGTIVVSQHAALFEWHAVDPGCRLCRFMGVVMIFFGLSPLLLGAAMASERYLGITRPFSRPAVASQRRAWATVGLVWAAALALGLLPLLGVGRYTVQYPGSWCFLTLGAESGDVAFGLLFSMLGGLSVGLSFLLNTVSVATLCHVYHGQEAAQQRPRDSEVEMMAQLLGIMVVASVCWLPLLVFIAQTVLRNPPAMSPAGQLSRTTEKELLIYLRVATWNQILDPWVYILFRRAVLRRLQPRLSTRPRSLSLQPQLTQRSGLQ

Assay [5] concerns the target T3, B2 bradykinin receptor (Homo sapiens, UniProt P30411).
T3 sequence (P30411 whole entry): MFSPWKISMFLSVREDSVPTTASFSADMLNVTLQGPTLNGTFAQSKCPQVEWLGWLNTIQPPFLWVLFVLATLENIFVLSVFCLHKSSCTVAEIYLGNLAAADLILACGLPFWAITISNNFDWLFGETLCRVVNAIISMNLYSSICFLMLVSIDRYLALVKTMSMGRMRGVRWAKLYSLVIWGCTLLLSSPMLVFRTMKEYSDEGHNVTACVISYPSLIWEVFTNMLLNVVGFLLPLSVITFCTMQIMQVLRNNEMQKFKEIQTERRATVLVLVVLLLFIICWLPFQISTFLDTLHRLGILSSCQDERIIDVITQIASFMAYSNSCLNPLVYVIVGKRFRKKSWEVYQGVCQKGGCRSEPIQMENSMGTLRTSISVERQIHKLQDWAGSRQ

Assay [6] addresses 5-hydroxytryptamine receptor 2B (Homo sapiens, UniProt P41595). The class given is functional, cell-based.
For assay [7], the target named is Sodium-dependent noradrenaline transporter (Homo sapiens, UniProt P23975).
Sequence of Sodium-dependent noradrenaline transporter (P23975 whole entry): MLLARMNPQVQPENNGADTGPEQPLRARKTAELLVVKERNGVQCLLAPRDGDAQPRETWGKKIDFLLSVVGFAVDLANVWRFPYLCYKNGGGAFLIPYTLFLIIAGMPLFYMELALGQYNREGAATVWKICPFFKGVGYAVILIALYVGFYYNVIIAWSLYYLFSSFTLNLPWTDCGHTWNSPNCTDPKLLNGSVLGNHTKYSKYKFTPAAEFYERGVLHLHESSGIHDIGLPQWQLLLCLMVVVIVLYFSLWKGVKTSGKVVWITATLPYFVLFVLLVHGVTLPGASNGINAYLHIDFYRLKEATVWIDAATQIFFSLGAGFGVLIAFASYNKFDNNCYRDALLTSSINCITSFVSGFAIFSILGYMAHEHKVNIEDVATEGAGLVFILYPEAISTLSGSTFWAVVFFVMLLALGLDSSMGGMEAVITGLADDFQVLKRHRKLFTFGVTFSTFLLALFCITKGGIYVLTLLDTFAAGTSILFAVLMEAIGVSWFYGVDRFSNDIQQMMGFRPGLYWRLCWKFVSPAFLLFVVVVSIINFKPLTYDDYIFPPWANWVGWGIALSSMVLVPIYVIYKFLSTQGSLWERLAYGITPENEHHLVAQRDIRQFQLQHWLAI
For assay [8], the target named is T4, Alpha-2A adrenergic receptor (Homo sapiens, UniProt P08913).
T4 sequence (P08913 whole entry): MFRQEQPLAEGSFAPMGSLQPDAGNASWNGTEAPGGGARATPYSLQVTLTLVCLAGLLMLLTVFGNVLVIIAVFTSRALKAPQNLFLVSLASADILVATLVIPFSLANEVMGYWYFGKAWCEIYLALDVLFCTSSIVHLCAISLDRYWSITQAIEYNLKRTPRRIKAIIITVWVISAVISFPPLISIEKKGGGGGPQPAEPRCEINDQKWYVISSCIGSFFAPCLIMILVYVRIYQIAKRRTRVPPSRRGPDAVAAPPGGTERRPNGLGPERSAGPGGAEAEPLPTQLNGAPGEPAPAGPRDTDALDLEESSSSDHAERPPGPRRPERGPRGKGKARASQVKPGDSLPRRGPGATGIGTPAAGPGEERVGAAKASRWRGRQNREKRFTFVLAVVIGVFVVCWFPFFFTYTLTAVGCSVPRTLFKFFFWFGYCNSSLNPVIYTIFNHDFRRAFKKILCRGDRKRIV
The class given is functional, cell-based.

Assay [9] concerns the target Neuronal acetylcholine receptor subunit alpha-4 (Homo sapiens, UniProt P43681).
The target of assay [10] is T5, Alpha-2C adrenergic receptor (Homo sapiens, UniProt P18825).
T5 sequence (P18825 whole entry): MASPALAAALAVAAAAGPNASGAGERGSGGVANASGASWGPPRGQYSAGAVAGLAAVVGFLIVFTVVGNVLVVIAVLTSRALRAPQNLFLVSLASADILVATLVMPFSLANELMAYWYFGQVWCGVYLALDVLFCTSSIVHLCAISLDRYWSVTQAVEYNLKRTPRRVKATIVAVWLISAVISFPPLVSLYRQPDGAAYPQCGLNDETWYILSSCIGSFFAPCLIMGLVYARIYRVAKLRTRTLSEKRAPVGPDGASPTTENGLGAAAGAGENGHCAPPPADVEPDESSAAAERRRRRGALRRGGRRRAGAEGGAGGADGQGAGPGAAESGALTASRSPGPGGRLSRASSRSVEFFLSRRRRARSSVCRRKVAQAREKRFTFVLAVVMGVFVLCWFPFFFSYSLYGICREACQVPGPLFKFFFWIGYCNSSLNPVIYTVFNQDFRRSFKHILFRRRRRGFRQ
The class given is functional.

The target in assay [11] is Melanocortin receptor 3 (Homo sapiens, UniProt P41968).
Sequence of Melanocortin receptor 3 (P41968 whole entry): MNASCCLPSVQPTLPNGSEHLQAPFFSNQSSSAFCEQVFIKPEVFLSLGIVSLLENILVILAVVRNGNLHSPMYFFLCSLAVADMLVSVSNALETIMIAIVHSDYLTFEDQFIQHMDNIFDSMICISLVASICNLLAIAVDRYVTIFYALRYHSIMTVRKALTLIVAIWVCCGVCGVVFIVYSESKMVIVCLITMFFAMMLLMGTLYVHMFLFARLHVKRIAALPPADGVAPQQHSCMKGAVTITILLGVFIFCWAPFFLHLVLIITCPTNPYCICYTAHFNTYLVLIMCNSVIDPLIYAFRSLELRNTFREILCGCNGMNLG
Further: assay procedure not described here.

Sequence of D(1A) dopamine receptor (P21728 whole entry): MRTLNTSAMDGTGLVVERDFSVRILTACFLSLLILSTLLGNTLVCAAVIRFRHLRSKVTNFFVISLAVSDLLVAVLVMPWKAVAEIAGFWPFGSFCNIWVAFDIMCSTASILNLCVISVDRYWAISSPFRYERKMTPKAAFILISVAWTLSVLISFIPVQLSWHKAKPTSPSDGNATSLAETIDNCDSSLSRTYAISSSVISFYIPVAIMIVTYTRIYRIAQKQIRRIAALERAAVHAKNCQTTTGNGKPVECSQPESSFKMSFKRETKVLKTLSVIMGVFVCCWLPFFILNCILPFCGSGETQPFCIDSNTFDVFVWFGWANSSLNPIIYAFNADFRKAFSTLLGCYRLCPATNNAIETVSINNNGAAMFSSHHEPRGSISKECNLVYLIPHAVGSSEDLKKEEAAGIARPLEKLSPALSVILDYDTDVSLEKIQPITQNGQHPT
Sequence of 5-hydroxytryptamine receptor 2B (P41595 whole entry): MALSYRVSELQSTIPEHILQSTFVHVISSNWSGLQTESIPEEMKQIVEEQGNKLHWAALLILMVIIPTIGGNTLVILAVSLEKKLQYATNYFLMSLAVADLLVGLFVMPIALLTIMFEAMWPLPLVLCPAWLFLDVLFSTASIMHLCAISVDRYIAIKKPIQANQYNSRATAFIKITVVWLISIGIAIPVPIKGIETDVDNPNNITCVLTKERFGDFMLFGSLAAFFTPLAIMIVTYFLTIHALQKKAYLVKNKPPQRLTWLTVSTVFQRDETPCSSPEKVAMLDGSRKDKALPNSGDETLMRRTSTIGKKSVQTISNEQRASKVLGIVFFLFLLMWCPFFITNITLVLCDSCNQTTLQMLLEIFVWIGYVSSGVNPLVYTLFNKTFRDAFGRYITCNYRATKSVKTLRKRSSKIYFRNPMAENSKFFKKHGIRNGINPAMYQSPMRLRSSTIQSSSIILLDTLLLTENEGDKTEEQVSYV
Sequence of Neuronal acetylcholine receptor subunit alpha-4 (P43681 whole entry): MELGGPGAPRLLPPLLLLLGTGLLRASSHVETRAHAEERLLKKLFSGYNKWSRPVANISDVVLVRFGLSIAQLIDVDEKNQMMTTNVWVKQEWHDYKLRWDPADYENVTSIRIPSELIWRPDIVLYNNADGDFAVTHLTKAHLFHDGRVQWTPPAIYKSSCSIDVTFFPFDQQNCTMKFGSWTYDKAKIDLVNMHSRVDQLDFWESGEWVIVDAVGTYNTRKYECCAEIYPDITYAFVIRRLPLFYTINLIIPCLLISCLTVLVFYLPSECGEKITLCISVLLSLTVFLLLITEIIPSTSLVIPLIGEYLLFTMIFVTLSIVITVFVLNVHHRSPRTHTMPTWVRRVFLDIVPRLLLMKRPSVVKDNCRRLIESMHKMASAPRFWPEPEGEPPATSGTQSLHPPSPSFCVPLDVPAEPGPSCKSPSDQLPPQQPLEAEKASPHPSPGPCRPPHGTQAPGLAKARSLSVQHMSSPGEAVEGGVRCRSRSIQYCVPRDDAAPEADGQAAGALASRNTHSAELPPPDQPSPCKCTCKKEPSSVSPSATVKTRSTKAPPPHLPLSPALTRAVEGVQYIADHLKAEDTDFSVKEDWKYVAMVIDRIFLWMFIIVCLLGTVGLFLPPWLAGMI

With `NS(=O)(=O)c1cc2c(cc1Cl)N=C(CSCc1ccccc1)NS2(=O)=O` [BENZTHIAZIDE], the AC50 in assay [1] was more than 10 µM; in assay [2], more than 30 µM; in assay [3] it was more than 10 µM; in [4], more than 10 µM; in assay [5], more than 10 µM; in [6], more than 10 µM. Besides, the concentration at half-maximal activity (AC50) was more than 10 µM in assay [7]; 1.7 µM in assay [8]; more than 10 µM in assay [9]; 1.5 µM in [10]; more than 10 µM in assay [11].
Turning to `Clc1ccc(CCC(Cn2ccnc2)Sc2c(Cl)cccc2Cl)cc1` (configuration not stated) [BUTOCONAZOLE], the AC50 in [1], in assay [2], in assay [3], in assay [4], in [5] and in assay [6] was more than 30 µM throughout. The AC50 in assay [7], in [8], in assay [9], in assay [10] and in assay [11] was more than 30 µM each time.
`CC(CN(C)C)C(C)(O)Cc1ccc(Cl)cc1` (configuration not stated) [CLOBUTINOL]: the AC50 in [1] was more than 10 µM; in assay [2], more than 30 µM; in [3], more than 10 µM; in assay [4] it was more than 30 µM; in assay [5] it was more than 30 µM; in assay [6], more than 10 µM. Also, the AC50 in [7] was more than 30 µM; in assay [8], more than 10 µM; in assay [9], more than 10 µM; in assay [10] it was more than 10 µM; in assay [11] it was more than 30 µM.
Regarding `C[C@@H]1C[C@H]2[C@@H]3CCC4=CC(=O)C=C[C@]4(C)[C@@]3(F)[C@@H](O)C[C@]2(C)[C@@]1(O)C(=O)CO` [DEXAMETHASONE], the AC50 in assay [1] is more than 30 µM; in assay [2], 0.2 µM; in [3], more than 10 µM; in [4], more than 30 µM; in assay [5] it was more than 30 µM; in assay [6] it was more than 10 µM. Besides, the AC50 in [7] was more than 30 µM; in assay [8], more than 10 µM; in [9], more than 30 µM; in assay [10] it was more than 30 µM; in [11], more than 30 µM.
For `CC(C)[C@@H](C)/C=C/[C@@H](C)[C@H]1CC[C@H]2/C(=C/C=C3\C[C@@H](O)CC[C@@H]3C)CCC[C@]12C` [DIHYDROTACHYSTEROL], the AC50 was more than 10 µM in assay [1]; more than 30 µM in assay [2]; more than 10 µM in [3]; more than 10 µM in assay [4]; more than 10 µM in assay [5]; more than 10 µM in [6]. Further, the AC50 in assay [7], in assay [8], in assay [9], in assay [10] and in assay [11] was more than 10 µM throughout.
In the case of `Oc1ccc(CCNCCCCCCNCCc2ccccc2)cc1O` [DOPEXAMINE], the AC50 in assay [1] is 23 µM; in assay [2], more than 30 µM; in assay [3], more than 30 µM; in assay [4] it was more than 30 µM; in assay [5], more than 30 µM; in [6] it was more than 30 µM. Also, the AC50 is 0.4 µM in assay [7]; more than 30 µM in [8]; more than 30 µM in assay [9]; 1.2 µM in assay [10]; more than 30 µM in assay [11].
Consider `CCN1CC(CCN2CCOCC2)C(c2ccccc2)(c2ccccc2)C1=O` (configuration not stated) [DOXAPRAM], for which the AC50 in assay [1], in assay [2], in assay [3], in assay [4], in [5] and in assay [6] was more than 30 µM each time. For the same molecule, the AC50 in [7], in assay [8], in assay [9], in assay [10] and in [11] was more than 30 µM each time.
